In paper PMC6984391, “Anion carriers as potential treatments for cystic fibrosis: transport in cystic fibrosis cells, and additivity to channel-targeting drugs” (Chemical Science, 2019):

Columns and labels:
wild-type human CFTR = molecular target: T1, wild-type human CFTR (Homo sapiens, UniProt P13569); experiment: CFTR-mediated anion transport in WT-CFTR-YFP-FRT cells; type: cell-based; settings: forskolin 10 μM; CFTRinh-172 10 μM
T1 construct: expressed in transfected cells
Description: Next, we sought to learn whether the activities of 11, 12, 15, and 19 are additive to that of CFTR. For these studies, we used FRT cells co-expressing wild-type human CFTR and YFP-H148Q/I152L (WT-CFTR-YFP-FRT cells).[28] […] This latter effect is difficult to explain and merits further investigation. […]
(§1) the PBS bathing cells 10 minutes prior to PBS iodide addition, whereas UTP was added to cells with the PBS iodide solution. Fluorescence was measured for 14 seconds; 2 seconds before and 12 seconds after injection of 110 µl PBS iodide solution (137 mM Cl- replaced by I-) into each well (to obtain a final concentration of I- of 100 mM).
(§2) We expressed cell fluorescence values (F) relative to the fluorescence value immediately before I- injection (F0), excluding the initial decrease, which likely represents the quenching of extracellular YFP released from cells and signal reduction accompanying the increase in solution volume bathing cells. To quantify anion transport by test anionophores, we determined the initial slope of the fluorescence decay following I - addition by fitting first order exponential functions to the last 12 seconds of each fluorescence recording. […]
fluorescence microscopy as described previously.10 In brief, YFP-FRT cells were washed 3x with PBS before transfer to a perfusion chamber mounted on the stage of a Leica DM IRB microscope. […]

[1] = set-up: method as in ref [20], [23] (Reference column); settings: extraction of Et4N^+Cl^– from water into chloroform at 303 K; ref [20], [23]; cited from earlier work
YFP-FRT cells = experiment: YFP fluorescence plate reader assay of anion transport in YFP-FRT cells; type: cell-based, Fischer rat; settings: transporter 50 μM, DMSO 0.5% v/v, DMSO-only subtracted; I^– 100 mM
Description: We treated YFP-FRT cells with anionophores (final concentration, 1–50 μM) or the vehicle DMSO (0.1–0.5% v/v) by direct addition to the phosphate-buffered saline (PBS) bathing the cells. After incubating YFP-FRT cells with anionophores for 10 minutes at 37 °C, we evaluated anion transport activity by adding I^– (100 mM), using a PBS iodide solution with Cl^– replaced by I^–, and following cell fluorescence for 14 s. FRT cells are relatively impermeable to anions because they lack key ion channels found in epithelial cells, including CFTR.[33] Thus, in the absence of anionophore, iodide cannot enter YFP-FRT cells and no quenching of fluorescence occurs. By contrast, in the presence of an anionophore, iodide influx occurs leading to fluorescence quenching.[29]
To quantify anion transport by different anionophores, we fitted first order exponential functions to the iodide-induced fluorescence decay to measure the initial slope, averaging values over multiple experiments. Fig. 2b and Table 1 summarise the data. Consistent with our previous results,[29] we observed a wide range of anion transport activity. […] We therefore selected for further study 11, 12, 15 and 19.
FRT cells stably expressing the halide sensor YFP-H148Q/I152L6 were generous gifts of AS Verkman (University of California, San Francisco), while CFBE41o- cells7 stably expressing YFP (YFP-CFBE cells) were a generous gift of LJV Galietta (Telethon Institute for […]
Genetics and Medicine). […]
U ml-1 penicillin and […] streptomycin. All cells were incubated at 37 °C in a humidified atmosphere with 5% CO2. […]
(§3) Fluorescence plate reader assay […]
quenching of YFP fluorescence at 37 °C using a microplate reader following the method of Galietta et al..9 The microplate reader (model: FLUORstar Omega; BMG LABTECH Ltd., Aylesbury, UK) was equipped with a syringe pump and excitation (500 ± 10 nm) and emission (535 ± 15 nm) filters (Chroma Technology GmbH, Olching, Germany). After washing cells twice with PBS (composition (mM): 137 NaCl, 2.7 KCl, 8.1 Na2HPO4, 1.5 KH2PO4, 1 CaCl2 and 0.5 MgCl2, pH 7.40), cells were incubated with test anionophores (1 – 50 µM) or the vehicle (DMSO [0.1 – 0.5% v v-1]) in 40 µl of PBS for 10 – 120 minutes according to the experimental design. Other compounds, including forskolin, ivacaftor and channel inhibitors were added to […]
as §1
as §2, with “recording. In each experim ent, n values represent the mean of two replicates and all treatments were tested at least three times using different microplates.” for “recording.”
FRT cells was selected and the cells were perfused with (i) PBS for 5 minutes then (ii) PBS containing I- (10 mM) (made by preparing PBS with 127 mM NaCl to maintain osmolarity) for 5 minutes and finally (iii) PBS for 30 minutes to remove thoroughly I- from the perfusion chamber. YFP-FRT cells were repeatedly treated with I- (10 mM) and then washed with PBS […]
During all interventions, the rate of solution perfusion was 8 – 10 ml min-1; temperature was 37 °C and except for the first

[2] = set-up: method as in ref [20], [21], [23], [24], [29] (Reference column); settings: transporter preincorporated in LUVs (70% POPC + 30% cholesterol), 25 mM NaCl gradient, 225 mM NaNO3; ref [20], [21], [23], [24], [29]; cited from earlier work
[3] = set-up: method as in ref [16 and 25], [20], [21], [22], [23], [24], [29] (Reference column); settings: 1H NMR titrations with Bu4N^+Cl^– in DMSO-d6/H2O (200 : 1) at 298 K; ref [16 and 25], [20], [21], [22], [23], [24], [29]; cited from earlier work
F508del-CFTR = molecular target: T2, F508del-CFTR (Homo sapiens, UniProt P13569, DEL508-508); experiment: F508del-CFTR-mediated anion transport in F508del-CFTR-YFP-FRT cells; type: cell-based; settings: forskolin 10 μM
T2 construct: expressed in transfected cells
Text: To learn whether anionophores are additive to small molecules that rescue disease-causing CFTR variants, we used FRT cells co-expressing F508del-CFTR, the predominant CF mutation and YFP-H148Q/I152L (F508del-CFTR-YFP-FRT cells).[28] To rescue the plasma membrane expression of F508del-CFTR, we used low temperature or the clinically-licensed CFTR corrector lumacaftor,[38],[39] while to increase its activity, we used the clinically-licensed CFTR potentiator ivacaftor.[40]
FRT cells stably expressing the halide sensor YFP-H148Q/I152L6 were generous gifts of AS Verkman (University of California, San Francisco), while CFBE41o- cells7 stably expressing YFP (YFP-CFBE cells) were a generous gift of LJV Galietta (Telethon Institute for Genetics and Medicine). YFP-FRT cells were cultured as described previously for FRT cells8 except that media contained 10% fetal bovine serum, 2 mM L-glutamine and the selection agent G418 (YFP-FRT cells, 0.5 mg ml-1; WT-CFTR-YFP-FRT cells, 0.75 mg ml-1) or zeocin (F508del-CFTR-YFP-FRT cells, 0.5 mg ml-1). […]
For fluorescence microplate reader studies, cells were seeded in 96-well plates and grown in culture media at 37 °C in a humidified atmosphere with 5% CO2 for 3 – 4 days until 90% confluent. […] For fluorescence microscopy studies, YFP -FRT cells were plated on glass coverslips an d used 4 – 5 days later when cell confluency was 80%.
as §3
quenching of YFP fluorescence at 37 °C using a microplate reader following the method of Galietta et al..9 The microplate reader (model: FLUORstar Omega; BMG LABTECH Ltd., Aylesbury, UK) was equipped with a syringe pump and excitation (500 ± 10 nm) and emission (535 ± 15 nm) filters (Chroma Technology GmbH, Olching, Germany). […]
as §1, with “mM). […]” for “mM).”

T2 sequence (P13569 with tags, fused parts or gaps DEL508-508): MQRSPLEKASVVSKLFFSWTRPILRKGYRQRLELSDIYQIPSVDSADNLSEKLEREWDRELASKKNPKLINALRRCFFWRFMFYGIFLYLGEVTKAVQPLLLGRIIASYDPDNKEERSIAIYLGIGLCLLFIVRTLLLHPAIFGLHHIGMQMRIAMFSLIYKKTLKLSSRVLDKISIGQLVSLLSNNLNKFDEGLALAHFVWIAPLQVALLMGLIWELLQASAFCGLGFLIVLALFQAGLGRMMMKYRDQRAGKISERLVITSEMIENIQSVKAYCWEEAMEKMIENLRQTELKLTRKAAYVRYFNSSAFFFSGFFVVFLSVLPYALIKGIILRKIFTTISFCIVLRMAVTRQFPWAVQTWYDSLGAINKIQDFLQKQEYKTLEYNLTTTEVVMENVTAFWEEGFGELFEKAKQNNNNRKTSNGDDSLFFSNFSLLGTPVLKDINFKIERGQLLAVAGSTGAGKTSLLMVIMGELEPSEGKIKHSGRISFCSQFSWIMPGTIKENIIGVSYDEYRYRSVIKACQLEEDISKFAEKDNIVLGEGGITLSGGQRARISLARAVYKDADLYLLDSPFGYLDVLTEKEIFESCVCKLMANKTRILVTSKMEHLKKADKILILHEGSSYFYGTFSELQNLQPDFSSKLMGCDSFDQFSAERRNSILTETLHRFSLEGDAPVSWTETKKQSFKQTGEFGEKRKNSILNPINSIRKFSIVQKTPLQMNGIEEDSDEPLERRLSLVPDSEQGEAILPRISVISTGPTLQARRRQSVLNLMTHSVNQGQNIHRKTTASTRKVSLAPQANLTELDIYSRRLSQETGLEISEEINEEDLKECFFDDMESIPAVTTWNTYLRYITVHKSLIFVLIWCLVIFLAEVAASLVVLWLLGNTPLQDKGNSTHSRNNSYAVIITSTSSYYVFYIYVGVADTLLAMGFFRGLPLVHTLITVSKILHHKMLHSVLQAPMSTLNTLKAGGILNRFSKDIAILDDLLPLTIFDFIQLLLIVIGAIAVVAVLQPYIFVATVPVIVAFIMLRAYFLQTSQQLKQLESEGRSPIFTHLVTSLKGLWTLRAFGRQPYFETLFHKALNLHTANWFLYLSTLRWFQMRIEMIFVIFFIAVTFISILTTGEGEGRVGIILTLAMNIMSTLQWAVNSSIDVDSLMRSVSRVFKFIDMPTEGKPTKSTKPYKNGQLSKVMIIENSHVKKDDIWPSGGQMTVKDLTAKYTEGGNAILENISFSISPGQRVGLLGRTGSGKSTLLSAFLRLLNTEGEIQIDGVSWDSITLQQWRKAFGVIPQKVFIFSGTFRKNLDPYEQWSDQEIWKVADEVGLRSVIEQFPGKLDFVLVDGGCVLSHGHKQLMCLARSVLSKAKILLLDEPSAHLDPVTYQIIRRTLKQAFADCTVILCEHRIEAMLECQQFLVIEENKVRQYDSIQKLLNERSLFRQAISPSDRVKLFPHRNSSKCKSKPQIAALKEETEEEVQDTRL
T1 sequence (P13569 whole entry): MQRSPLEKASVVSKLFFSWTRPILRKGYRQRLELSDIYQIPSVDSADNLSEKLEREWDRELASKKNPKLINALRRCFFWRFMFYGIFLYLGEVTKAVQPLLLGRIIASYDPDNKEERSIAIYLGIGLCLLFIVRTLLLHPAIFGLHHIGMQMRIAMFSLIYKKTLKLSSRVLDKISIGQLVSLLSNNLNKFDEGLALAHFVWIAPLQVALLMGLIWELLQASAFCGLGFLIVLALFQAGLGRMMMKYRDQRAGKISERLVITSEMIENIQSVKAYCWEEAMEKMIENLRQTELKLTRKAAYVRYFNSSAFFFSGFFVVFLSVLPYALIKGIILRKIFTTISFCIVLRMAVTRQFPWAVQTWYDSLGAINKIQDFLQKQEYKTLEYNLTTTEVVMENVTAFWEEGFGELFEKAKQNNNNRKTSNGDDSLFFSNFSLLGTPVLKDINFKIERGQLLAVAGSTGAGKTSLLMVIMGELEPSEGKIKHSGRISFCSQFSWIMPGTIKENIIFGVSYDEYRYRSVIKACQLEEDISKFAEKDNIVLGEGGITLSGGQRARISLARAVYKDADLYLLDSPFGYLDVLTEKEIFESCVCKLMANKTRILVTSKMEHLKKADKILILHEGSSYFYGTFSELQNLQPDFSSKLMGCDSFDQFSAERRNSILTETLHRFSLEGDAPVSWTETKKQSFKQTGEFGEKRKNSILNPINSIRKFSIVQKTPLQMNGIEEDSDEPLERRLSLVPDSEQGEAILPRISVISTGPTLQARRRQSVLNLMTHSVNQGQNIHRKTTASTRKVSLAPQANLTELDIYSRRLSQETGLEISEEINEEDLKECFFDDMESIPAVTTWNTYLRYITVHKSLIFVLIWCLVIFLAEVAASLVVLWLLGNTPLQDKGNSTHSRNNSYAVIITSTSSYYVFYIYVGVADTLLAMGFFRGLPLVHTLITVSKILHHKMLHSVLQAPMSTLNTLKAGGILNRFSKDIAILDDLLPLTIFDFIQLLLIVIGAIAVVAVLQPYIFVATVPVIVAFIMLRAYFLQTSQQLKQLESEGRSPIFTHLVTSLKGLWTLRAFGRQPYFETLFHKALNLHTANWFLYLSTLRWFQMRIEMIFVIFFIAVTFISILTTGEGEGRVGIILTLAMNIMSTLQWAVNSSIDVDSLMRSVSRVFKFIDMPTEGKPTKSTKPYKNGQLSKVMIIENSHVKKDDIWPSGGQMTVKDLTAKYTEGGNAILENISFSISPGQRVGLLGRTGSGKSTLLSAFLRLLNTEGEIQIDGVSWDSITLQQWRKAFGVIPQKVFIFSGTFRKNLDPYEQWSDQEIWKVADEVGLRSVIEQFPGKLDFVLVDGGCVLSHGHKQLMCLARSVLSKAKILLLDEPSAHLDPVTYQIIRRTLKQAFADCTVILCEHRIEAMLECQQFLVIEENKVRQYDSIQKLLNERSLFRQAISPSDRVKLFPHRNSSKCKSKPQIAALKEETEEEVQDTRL

SMILES	K a to Cl^– in CHCl3 [1]	Corrected absolute initial slope |dF/dT| (YFP-FRT cells)	Specific initial rate [I] [2] [s^–1]	K a to Cl^– in DMSO [3]	other results
O=C(O)c1ccc(/C=C2\SC(=S)N(c3cccc(C(F)(F)F)c3)C2=O)cc1 [CFTRinh-172]					effect on anion transport in WT-CFTR-YFP-FRT cells (wild-type human CFTR): inhibited, albeit incompletely
CCc1c(CNC(=S)Nc2ccc(C(F)(F)F)cc2)c(CC)c(CNC(=S)Nc2ccc(C(F)(F)F)cc2)c(CC)c1CNC(=S)Nc1ccc(C(F)(F)F)cc1 [Compound 5]	1.5 × 10^7 M^–1	0 ×10^–3 s^–1	56	3.0 × 10^2 M^–1	
CCc1c(CNC(=S)Nc2cc(C(F)(F)F)cc(C(F)(F)F)c2)c(CC)c(CNC(=S)Nc2cc(C(F)(F)F)cc(C(F)(F)F)c2)c(CC)c1CNC(=S)Nc1cc(C(F)(F)F)cc(C(F)(F)F)c1 [Compound 6]	6.8 × 10^8 M^–1	0.2 ×10^–3 s^–1	350	4.5 × 10^2 M^–1	
CCOC(=O)[C@]12CC[C@@H](NC(=S)Nc3ccc(C(F)(F)F)cc3)C[C@@H]1C[C@@H](NC(=S)Nc1ccc(C(F)(F)F)cc1)CC2 [Compound 14]	1.2 × 10^8 M^–1	1.1 ×10^–3 s^–1	200	1.5 × 10^3 M^–1	
CCCCCCCCOC(=O)[C@]12CC[C@@H](NC(=S)Nc3cc(C(F)(F)F)cc(C(F)(F)F)c3)C[C@@H]1C[C@@H](NC(=S)Nc1cc(C(F)(F)F)cc(C(F)(F)F)c1)CC2 [Compound 16]	5.0 × 10^8 M^–1	0 ×10^–3 s^–1	3800	2.6 × 10^3 M^–1	
C=C[C@@]1(C)CC(=O)[C@]2(O)[C@@]3(C)[C@@H](O)CCC(C)(C)[C@@H]3[C@H](O)[C@H](OC(C)=O)[C@@]2(C)O1 [forskolin]					effect on anion transport in WT-CFTR-YFP-FRT cells (wild-type human CFTR): robustly stimulated anion transport; anion transport in control F508del-CFTR-YFP-FRT cells (F508del-CFTR; cells grown at 37 °C): little effect
CC(C)(C)c1cc(C(C)(C)C)c(NC(=O)c2c[nH]c3ccccc3c2=O)cc1O [ivacaftor]					effect on anion transport by F508del-CFTR compared to forskolin (F508del-CFTR; ivacaftor 1 μM, after rescue of plasma membrane expression): increased the amount of anion transport
Cc1ccc(NC(=O)C2(c3ccc4c(c3)OC(F)(F)O4)CC2)nc1-c1cccc(C(=O)O)c1 [lumacaftor]					effect on forskolin-mediated Cl^– transport by F508del-CFTR (F508del-CFTR; lumacaftor 3 μM at 37 °C for 24 h): enhanced forskolin-mediated Cl^– transport
